Measurements reported in patent US9850283B2, “Macrocyclic inhibitors of the PD-1/PD-L1 and CD80(B7-1)/PD-L1 protein/protein interactions” (BRISTOL-MYERS SQUIBB COMPANY, priority 2013, dated 2017).
Read-outs that look alike come from different tables or passages of the source. Positions of bridges follow the written chain, without caps; N, C: chain ends. Non-standard residues stand in square brackets, D forms with d. Residues, ends and D or L forms follow the SMILES beside them. ξ: configuration not given here. Phe(4-CONH2) = NC(=O)c1ccc(C[C@H](N)C(=O)O)cc1; Phe(3-F) = N[C@@H](Cc1cccc(F)c1)C(=O)O; Phe(4-F) = N[C@@H](Cc1ccc(F)cc1)C(=O)O; Pro(4R-NH2) = N[C@H]1CN[C@H](C(=O)O)C1; Bta = N[C@@H](Cc1csc2ccccc12)C(=O)O; Hyp = O=C(O)[C@@H]1C[C@@H](O)CN1; NMeF = CN[C@@H](Cc1ccccc1)C(=O)O; 4Pal = N[C@@H](Cc1ccncc1)C(=O)O; Cha = N[C@@H](CC1CCCCC1)C(=O)O; NMeNle = CCCC[C@H](NC)C(=O)O; NMeA = CN[C@@H](C)C(=O)O; Orn = NCCC[C@H](N)C(=O)O; Dab = NCC[C@H](N)C(=O)O; Dap = NC[C@H](N)C(=O)O; ξC = NC(CS)C(=O)O; Sar = CNCC(=O)O

Assays:
Human PD-L1/PD-1 = target: T1, Human PD-L1/PD-1 (Homo sapiens, UniProt Q9NZQ7); assay: HTRF PD-1-Ig/PD-L1-His binding assay (human PD-L1); conditions: cluster symbol; read-out: HTRF IC50 cluster
T1 construct: made in house; host or cells: HEK293T
Outline: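 Soluble Fc-fused PD-1 and His-tagged PD-L1 (truncated before the transmembrane region) were combined in dPBS with 0.1% (w/v) BSA and 0.05% (v/v) Tween-20. Binding was read by HTRF using europium cryptate anti-Ig antibody (1 nM final) and APC anti-His antibody (20 nM final).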

[1] = target: T2, LK35.2-hPD-L1 cells / PE-labeled PD-1-Ig (Homo sapiens, UniProt Q9NZQ7); assay: LK35.2-hPD-L1 cell binding high-content screening assay; assay type: cell-based; conditions: cluster symbol, read-out: CBA IC50 cluster
T2 construct: expressed in transfected cells; host or cells: LK35.2 mouse B cell line
Outline: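 Compound effect on PD-1/PD-L1 binding is measured by imaging cell-associated phycoerythrin signal. Human PD-1-Ig (PE on Ig tag, 1 nM final) is applied with compound to a murine B cell line overexpressing human PD-L1 for 1 h at 37 °C in serum-containing RPMI.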

[2] = cell binding assay, cell line not given
[3] = cell line of CBA not given (LK35.2-hPD-L1 or 293T-hPD-L1)

T2 sequence (Q9NZQ7 19-290): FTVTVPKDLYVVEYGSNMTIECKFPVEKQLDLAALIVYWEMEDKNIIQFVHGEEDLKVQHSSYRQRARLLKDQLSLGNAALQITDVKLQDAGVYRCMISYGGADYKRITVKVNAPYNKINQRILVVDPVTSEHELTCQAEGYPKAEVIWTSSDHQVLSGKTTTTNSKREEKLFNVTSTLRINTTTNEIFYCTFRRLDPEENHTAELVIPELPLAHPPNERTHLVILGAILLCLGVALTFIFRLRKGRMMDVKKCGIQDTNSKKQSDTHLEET
T1 sequence (Q9NZQ7 with tags, fused parts or gaps): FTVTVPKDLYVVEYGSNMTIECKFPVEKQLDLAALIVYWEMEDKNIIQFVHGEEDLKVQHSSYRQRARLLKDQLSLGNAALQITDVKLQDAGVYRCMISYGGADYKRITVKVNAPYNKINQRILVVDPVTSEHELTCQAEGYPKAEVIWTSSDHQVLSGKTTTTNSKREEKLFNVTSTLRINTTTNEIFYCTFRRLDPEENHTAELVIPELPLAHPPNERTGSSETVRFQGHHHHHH

Compound | IC50 (Human PD-L1/PD-1) | IC50 [1, 2] | IC50 [1, 3]
CCCC[C@H]1C(=O)N(C)[C@@H](CCCC)C(=O)N[C@@H](CC2CCCCC2)C(=O)N[C@H](C(=O)NCC(N)=O)CSCC(=O)N[C@@H](Cc2ccc(O)cc2)C(=O)N(C)[C@@H](C)C(=O)N[C@@H](CC(N)=O)C(=O)N2CCC[C@H]2C(=O)N[C@@H](Cc2c[nH]cn2)C(=O)N[C@@H](CCC(N)=O)C(=O)N2C[C@H](O)C[C@H]2C(=O)N[C@@H](Cc2c[nH]c3ccccc23)C(=O)N[C@@H](CO)C(=O)N[C@@H](Cc2c[nH]c3ccccc23)C(=O)N1C [Example 5077] ({CH2CO}-Y[NMeA]NPHQ[Hyp]WSW[NMeNle][NMeNle][Cha]CG-NH2; thioether N-14) | 6.76 to 30.3 nM | 0.158 to 4.71 nM | –
CCCC[C@H]1C(=O)N(C)CC(=O)N[C@@H](CC(N)=O)C(=O)N[C@@H](C(C)C)C(=O)N(C)[C@@H](Cc2ccccc2)C(=O)N[C@@H](Cc2ccc(O)cc2)C(=O)N(C)CC(=O)N[C@@H](Cc2c[nH]c3ccccc23)C(=O)N[C@@H](Cc2ccc(O)cc2)C(=O)N[C@@H](CCCN)C(=O)N[C@H](C(=O)NCC(N)=O)CSCC(=O)N[C@@H](Cc2ccccc2)C(=O)N[C@@H](Cc2ccncc2)C(=O)N1C [Example 3610] ({CH2CO}-F[4Pal][NMeNle][Sar]NV[NMeF]Y[Sar]WY[Orn]CG-NH2; thioether N-13) | 6.76 to 30.3 nM | 4.78 to 72.9 nM | –
CCCC[C@H]1C(=O)N(C)[C@@H](CCCC)C(=O)N[C@@H](CCCNC(=N)N)C(=O)N[C@H](C(=O)NCC(N)=O)CSCC(=O)N[C@@H](Cc2ccccc2)C(=O)N(C)[C@@H](C)C(=O)N[C@@H](CC(N)=O)C(=O)N2CCC[C@H]2C(=O)N[C@@H](Cc2cnc[nH]2)C(=O)N[C@@H](Cc2cnc[nH]2)C(=O)N(C)CC(=O)N[C@@H](Cc2c[nH]c3ccccc23)C(=O)N[C@@H](CO)C(=O)N[C@@H](Cc2c[nH]c3ccccc23)C(=O)N1C [Example 6008] ({CH2CO}-F[NMeA]NPHH[Sar]WSW[NMeNle][NMeNle]RCG-NH2; thioether N-14) | > 30.5 nM | > 74.3 nM | –
CCCC[C@H]1C(=O)N(C)CC(=O)N[C@@H](CC(=O)O)C(=O)N[C@@H](C(C)C)C(=O)N(C)[C@@H](Cc2ccccc2)C(=O)N2C[C@H](N)C[C@H]2C(=O)N2CCC[C@@H]2C(=O)N[C@@H](Cc2c[nH]c3ccccc23)C(=O)N[C@@H](Cc2ccc(O)cc2)C(=O)N[C@@H](CC(C)C)C(=O)N[C@H](C(=O)NCC(N)=O)CSCC(=O)N[C@@H](Cc2ccccc2)C(=O)N(C)[C@@H](Cc2ccccc2)C(=O)N1C [Example 3178] ({CH2CO}-F[NMeF][NMeNle][Sar]DV[NMeF][Pro(4R-NH2)][dP]WYLCG-NH2; thioether N-13) | 6.76 to 30.3 nM | – | 4.78 to 72.9 nM
CCCC[C@H]1C(=O)N(C)CC(=O)N[C@@H](CC(=O)O)C(=O)N[C@@H](C(C)C)C(=O)N(C)[C@@H](Cc2ccccc2)C(=O)N[C@@H](Cc2ccc(O)cc2)C(=O)N(C)CC(=O)N[C@@H](Cc2c[nH]c3ccccc23)C(=O)N[C@@H](Cc2ccc(O)cc2)C(=O)N[C@@H](CC(C)C)C(=O)N[C@H](C(=O)NCC(N)=O)CSCC(=O)N[C@@H](Cc2cccc(F)c2)C(=O)N(C)[C@@H](Cc2ccccc2)C(=O)N1C [Example 3125] ({CH2CO}-[Phe(3-F)][NMeF][NMeNle][Sar]DV[NMeF]Y[Sar]WYLCG-NH2; thioether N-13) | 6.76 to 30.3 nM | – | 0.158 to 4.71 nM
CCCC[C@H]1C(=O)N(C)CC(=O)N[C@@H](CC(=O)O)C(=O)N[C@@H](C(C)C)C(=O)N(C)[C@@H](Cc2ccccc2)C(=O)N[C@@H](Cc2ccc(O)cc2)C(=O)N(C)CC(=O)N[C@@H](Cc2c[nH]c3ccccc23)C(=O)N[C@@H](Cc2ccc(O)cc2)C(=O)N[C@@H](CC(C)C)C(=O)N[C@H](C(=O)NCC(N)=O)CSCC(=O)N[C@@H](Cc2ccc(F)cc2)C(=O)N(C)[C@@H](Cc2ccccc2)C(=O)N1C [Example 3520] ({CH2CO}-[Phe(4-F)][NMeF][NMeNle][Sar]DV[NMeF]Y[Sar]WYLCG-NH2; thioether N-13) | 6.76 to 30.3 nM | 0.158 to 4.71 nM | –
CCCC[C@H]1C(=O)N(C)[C@@H](CCCC)C(=O)N[C@@H](CCCNC(=N)N)C(=O)N[C@H](C(=O)NCC(N)=O)CSCC(=O)N[C@@H](Cc2ccc(C(N)=O)cc2)C(=O)N(C)[C@@H](C)C(=O)N[C@@H](CC(N)=O)C(=O)N2CCC[C@H]2C(=O)N[C@@H](Cc2cnc[nH]2)C(=O)N[C@@H](CC(C)C)C(=O)N2C[C@H](O)C[C@H]2C(=O)N[C@@H](Cc2c[nH]c3ccccc23)C(=O)N[C@@H](CO)C(=O)N[C@@H](Cc2c[nH]c3ccccc23)C(=O)N1C [Example 7050] ({CH2CO}-[Phe(4-CONH2)][NMeA]NPHL[Hyp]WSW[NMeNle][NMeNle]RCG-NH2; thioether N-14) | 0.385 to 6.74 nM | 4.78 to 72.9 nM | –
CCCC[C@H]1C(=O)N[C@H](CC(=O)O)C(=O)N[C@@H](CC(=O)O)C(=O)N[C@@H](C(C)C)C(=O)N(C)[C@@H](Cc2ccccc2)C(=O)N[C@@H](Cc2ccc(O)cc2)C(=O)N(C)CC(=O)N[C@@H](Cc2c[nH]c3ccccc23)C(=O)N[C@@H](Cc2ccc(O)cc2)C(=O)N[C@@H](CC(C)C)C(=O)N[C@H](C(=O)NCC(N)=O)CSCC(=O)N[C@@H](Cc2ccccc2)C(=O)N(C)[C@@H](Cc2ccccc2)C(=O)N1C [Example 3552] (HELM PEPTIDE1{[O=C(C[*:3])[*:2]].F.[meF].[CCCC[C@@H](C(=O)[*:2])N(C)[*:1]].[dD].D.V.[meF].Y.[Sar].W.Y.L.C.G.[am]}$PEPTIDE1,PEPTIDE1,1:R3-14:R3$$$V2.0) | 0.385 to 6.74 nM | 4.78 to 72.9 nM | –
CCCC[C@H]1C(=O)N(C)[C@@H](CCCC)C(=O)N[C@@H](C)C(=O)N[C@H](C(N)=O)CSCC(=O)N[C@@H](Cc2ccc(O)cc2)C(=O)N(C)[C@@H](C)C(=O)N[C@@H](CCC(=O)O)C(=O)N2CCC[C@H]2C(=O)N[C@@H](Cc2cnc[nH]2)C(=O)N[C@@H](CCN)C(=O)N2C[C@H](O)C[C@H]2C(=O)N[C@@H](Cc2c[nH]c3ccccc23)C(=O)N[C@@H](CO)C(=O)N[C@@H](Cc2c[nH]c3ccccc23)C(=O)N1C [Example 1239] ({CH2CO}-Y[NMeA]EPH[Dab][Hyp]WSW[NMeNle][NMeNle]AC-NH2; thioether N-14) | 6.76 to 30.3 nM | – | 4.78 to 72.9 nM
CCCC[C@H]1C(=O)N(C)[C@@H](CCCC)C(=O)N[C@@H](CCC(=O)O)C(=O)N[C@H](C(=O)NCC(N)=O)CSCC(=O)N[C@@H](Cc2ccc(O)cc2)C(=O)N(C)[C@@H](C)C(=O)N[C@@H](CC(N)=O)C(=O)N2CCC[C@H]2C(=O)N[C@@H](Cc2c[nH]cn2)C(=O)N[C@@H](CCC(N)=O)C(=O)N2C[C@H](O)C[C@H]2C(=O)N[C@@H](Cc2c[nH]c3ccccc23)C(=O)N[C@@H](CCCCN)C(=O)N[C@@H](Cc2c[nH]c3ccccc23)C(=O)N1C [Example 5106] ({CH2CO}-Y[NMeA]NPHQ[Hyp]WKW[NMeNle][NMeNle]ECG-NH2; thioether N-14) | 0.385 to 6.74 nM | 0.158 to 4.71 nM | –

Next, values leading:

IC50 (Human PD-L1/PD-1) | IC50 [1, 2] | IC50 [1, 3] | Compound
0.385 to 6.74 nM | 0.158 to 4.71 nM | – | CCCC[C@H]1C(=O)N(C)[C@@H](CCCC)C(=O)N[C@@H](CCCNC(=N)N)C(=O)NC(C(=O)NCC(N)=O)CSCC(=O)N[C@@H](Cc2ccc(O)cc2)C(=O)N(C)[C@@H](C)C(=O)N[C@@H](CC(N)=O)C(=O)N2CCC[C@H]2C(=O)N[C@@H](CO)C(=O)N[C@@H](CC(C)C)C(=O)N2C[C@H](O)C[C@H]2C(=O)N[C@@H](Cc2c[nH]c3ccccc23)C(=O)N[C@@H](CO)C(=O)N[C@@H](Cc2csc3ccccc23)C(=O)N1C (stereo partly shown) [Example 9071] ({CH2CO}-Y[NMeA]NPSL[Hyp]WS[Bta][NMeNle][NMeNle]R[ξC]G-NH2; thioether N-14)
0.385 to 6.74 nM | 0.158 to 4.71 nM | – | CCCC[C@H]1C(=O)N(C)[C@@H](CCCC)C(=O)N[C@@H](C)C(=O)N[C@H](C(=O)NCC(N)=O)CSCC(=O)N[C@@H](Cc2ccc(O)cc2)C(=O)N(C)[C@@H](C)C(=O)N[C@@H](CC(=O)O)C(=O)N2CCC[C@H]2C(=O)N[C@@H](Cc2cnc[nH]2)C(=O)N[C@@H](CCC(N)=O)C(=O)N2CCC[C@H]2C(=O)N[C@@H](Cc2c[nH]c3ccccc23)C(=O)N[C@@H](CO)C(=O)N[C@@H](Cc2c[nH]c3ccccc23)C(=O)N1C [Example 6024] ({CH2CO}-Y[NMeA]DPHQPWSW[NMeNle][NMeNle]ACG-NH2; thioether N-14)
0.385 to 6.74 nM | 0.158 to 4.71 nM | – | CCCC[C@H]1C(=O)N(C)[C@@H](CCCC)C(=O)N[C@@H](CC(C)C)C(=O)N[C@H](C(=O)NCC(N)=O)CSCC(=O)N[C@@H](Cc2ccc(O)cc2)C(=O)N(C)[C@@H](C)C(=O)N[C@@H](CC(=O)O)C(=O)N2CCC[C@H]2C(=O)N[C@@H](Cc2cnc[nH]2)C(=O)N[C@@H](CC(C)C)C(=O)N2C[C@H](O)C[C@H]2C(=O)N[C@@H](Cc2c[nH]c3ccccc23)C(=O)N[C@@H](CCN)C(=O)N[C@@H](Cc2c[nH]c3ccccc23)C(=O)N1C [Example 6027] ({CH2CO}-Y[NMeA]DPHL[Hyp]W[Dab]W[NMeNle][NMeNle]LCG-NH2; thioether N-14)
0.385 to 6.74 nM | 4.78 to 72.9 nM | – | CCCC[C@H]1C(=O)N(C)[C@@H](CCCC)C(=O)N[C@@H](CCCNC(=N)N)C(=O)N[C@H](C(=O)NCC(N)=O)CSCC(=O)N[C@@H](Cc2ccc(O)cc2)C(=O)N(C)[C@@H](C)C(=O)N[C@@H](CC(N)=O)C(=O)N2CCC[C@H]2C(=O)N[C@@H](CN)C(=O)N[C@@H](CC(C)C)C(=O)N2C[C@H](O)C[C@H]2C(=O)N[C@@H](Cc2c[nH]c3ccccc23)C(=O)N[C@@H](CCC(=O)O)C(=O)N[C@@H](Cc2c[nH]c3ccccc23)C(=O)N1C [Example 5058] ({CH2CO}-Y[NMeA]NP[Dap]L[Hyp]WEW[NMeNle][NMeNle]RCG-NH2; thioether N-14)
